Laboratory results published in patent US20260273110A1, “Radiolabeled Fibroblast Activation Protein Inhibitors and Methods of Making Same” (REGENTS OF THE UNIVERSITY OF MICHIGAN, priority 2023, published 2026).
Where two headings read alike, the source gives them in different places.

Experiments:
FAP = target: T1, FAP (Homo sapiens, UniProt Q12884); details: cited from earlier work; for tumor to kidney ratio: [^177Lu] agent
T1 sequence (Q12884 1-760): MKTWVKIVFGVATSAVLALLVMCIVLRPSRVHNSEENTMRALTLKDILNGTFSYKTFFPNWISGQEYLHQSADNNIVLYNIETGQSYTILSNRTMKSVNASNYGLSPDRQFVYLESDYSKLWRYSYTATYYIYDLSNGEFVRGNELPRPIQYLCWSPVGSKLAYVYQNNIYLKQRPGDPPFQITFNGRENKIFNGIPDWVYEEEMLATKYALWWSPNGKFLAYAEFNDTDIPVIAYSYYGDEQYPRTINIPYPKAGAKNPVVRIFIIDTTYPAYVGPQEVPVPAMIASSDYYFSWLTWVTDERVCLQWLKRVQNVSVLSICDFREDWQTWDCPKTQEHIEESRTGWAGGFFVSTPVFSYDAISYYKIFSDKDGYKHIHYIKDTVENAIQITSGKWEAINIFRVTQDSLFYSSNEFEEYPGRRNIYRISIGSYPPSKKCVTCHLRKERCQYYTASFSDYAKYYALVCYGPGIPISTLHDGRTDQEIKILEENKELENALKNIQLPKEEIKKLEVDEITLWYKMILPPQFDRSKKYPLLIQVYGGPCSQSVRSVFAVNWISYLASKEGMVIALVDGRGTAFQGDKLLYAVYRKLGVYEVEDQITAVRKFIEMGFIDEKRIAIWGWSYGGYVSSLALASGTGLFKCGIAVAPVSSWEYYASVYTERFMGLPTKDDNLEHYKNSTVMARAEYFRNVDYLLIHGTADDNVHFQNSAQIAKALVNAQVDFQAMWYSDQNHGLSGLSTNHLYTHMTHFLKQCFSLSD

[1] = Ib-3 uptake and dosimetry studies in rats; human estimated dosimetry (OLINDA/EXM 2.0); type: in vivo, Sprague-Dawley rats; details: estimates of human dosimetry from rat distribution data
Method: Uptake and dosimetry studies of (S)—N-(2-(2-cyanopyrrolidin-1-yl)-2-oxoethyl)-6-fluroquinoline-4-carboxamide (Ib-3) were performed in Sprague-Dawley rats (n=4, 2 males, 2 females) at 10, 20, 60, and 120 min. Rats were anesthetized with isoflurane, and (S)—N-(2-(2-cyanopyrrolidin-1-yl)-2-oxoethyl)-6-fluroquinoline-4-carboxamide (Ib-3) was administered via tail vein injections. At the appropriate time points, animals were euthanized, and their tissues procured for measuring radioactivity. Radioactivity was measured in a well counter and expressed as decay-corrected percentage injected dose per gram of tissue. Radiation dosimetry was calculated from the distribution data and was used to determine estimates of human dosimetry with OLINDA/EXM 2.0 software, or equivalent.
Human estimated dosimetry is given in Table 1, below, in mSv/MBq injected for each organ for males, females, and gender averaged: […]

## CN(CCCN1CCN(C(=O)CN2CCN(CC(=O)O)CCN(CC(=O)O)CCN(CC(=O)O)CC2)CC1)c1ccc2nccc(C(=O)NCC(=O)N3CC(F)(F)C[C@H]3C#N)c2c1 [FAPI-46]
FAP; [^68Ga] agent, early time points
  tumor to background ratio relative to FAP-2286: 3-5 times
FAP; 3 h
  tumor to kidney ratio: 21.0
FAP; 24 hours
  tumor to kidney ratio: 12.7
FAP; 72 h
  tumor to kidney ratio: 8

## N#C[C@@H]1CCCN1C(=O)CNC(=O)c1ccnc2ccc([18F])cc12 [Ib-3, (S)—N-(2-(2-cyanopyrrolidin-1-yl)-2-oxoethyl)-6-[18F]fluoroquinoline-4-carboxamide]
[1]; Females
  Human estimated dosimetry: Adrenals: 1.02E−02 mSv/MBq
  Human estimated dosimetry: Brain: 3.83E−03 mSv/MBq
  Human estimated dosimetry: Breasts: 1.23E−02 mSv/MBq
  Human estimated dosimetry: Effective Dose: 1.39E−02 mSv/MBq
  Human estimated dosimetry: Esophagus: 1.29E−02 mSv/MBq
  Human estimated dosimetry: Eyes: 6.79E−03 mSv/MBq
  Human estimated dosimetry: Gallbladder Wall: 1.64E−02 mSv/MBq
  Human estimated dosimetry: Heart Wall: 1.46E−02 mSv/MBq
  Human estimated dosimetry: Kidneys: 1.48E−02 mSv/MBq
  Human estimated dosimetry: Left colon: 2.18E−02 mSv/MBq
  Human estimated dosimetry: Liver: 9.11E−03 mSv/MBq
  Human estimated dosimetry: Lungs: 9.36E−03 mSv/MBq
  Human estimated dosimetry: Osteogenic Cells: 1.90E−02 mSv/MBq
  Human estimated dosimetry: Ovaries: 1.40E−02 mSv/MBq
  Human estimated dosimetry: Pancreas: 1.19E−02 mSv/MBq
  Human estimated dosimetry: Rectum: 1.94E−02 mSv/MBq
  Human estimated dosimetry: Red Marrow: 1.58E−02 mSv/MBq
  Human estimated dosimetry: Right colon: 1.99E−02 mSv/MBq
  Human estimated dosimetry: Salivary Glands: 1.34E−02 mSv/MBq
  Human estimated dosimetry: Small Intestine: 2.75E−02 mSv/MBq
  Human estimated dosimetry: Spleen: 1.00E−02 mSv/MBq
  Human estimated dosimetry: Stomach Wall: 1.69E−02 mSv/MBq
  Human estimated dosimetry: Thymus: 1.50E−02 mSv/MBq
  Human estimated dosimetry: Thyroid: 1.38E−02 mSv/MBq
  Human estimated dosimetry: Total Body: 1.49E−02 mSv/MBq
  Human estimated dosimetry: Urinary Bladder Wall: 3.42E−02 mSv/MBq
  Human estimated dosimetry: Uterus: 1.49E−02 mSv/MBq
[1]; Gender Averaged
  Human estimated dosimetry: Adrenals: 9.65E−03 mSv/MBq
  Human estimated dosimetry: Brain: 3.31E−03 mSv/MBq
  Human estimated dosimetry: Breasts: 1.23E−02 mSv/MBq
  Human estimated dosimetry: Effective Dose: 1.25E−02 mSv/MBq
  Human estimated dosimetry: Esophagus: 1.21E−02 mSv/MBq
  Human estimated dosimetry: Eyes: 6.09E−03 mSv/MBq
  Human estimated dosimetry: Gallbladder Wall: 1.49E−02 mSv/MBq
  Human estimated dosimetry: Heart Wall: 1.26E−02 mSv/MBq
  Human estimated dosimetry: Kidneys: 1.52E−02 mSv/MBq
  Human estimated dosimetry: Left colon: 1.99E−02 mSv/MBq
  Human estimated dosimetry: Liver: 8.47E−03 mSv/MBq
  Human estimated dosimetry: Lungs: 8.27E−03 mSv/MBq
  Human estimated dosimetry: Osteogenic Cells: 1.84E−02 mSv/MBq
  Human estimated dosimetry: Ovaries: 1.40E−02 mSv/MBq
  Human estimated dosimetry: Pancreas: 1.10E−02 mSv/MBq
  Human estimated dosimetry: Prostate: 1.66E−02 mSv/MBq
  Human estimated dosimetry: Rectum: 1.78E−02 mSv/MBq
  Human estimated dosimetry: Red Marrow: 1.43E−02 mSv/MBq
  Human estimated dosimetry: Right colon: 1.82E−02 mSv/MBq
  Human estimated dosimetry: Salivary Glands: 1.26E−02 mSv/MBq
  Human estimated dosimetry: Small Intestine: 2.59E−02 mSv/MBq
  Human estimated dosimetry: Spleen: 9.10E−03 mSv/MBq
  Human estimated dosimetry: Stomach Wall: 1.55E−02 mSv/MBq
  Human estimated dosimetry: Testes: 7.86E−03 mSv/MBq
  Human estimated dosimetry: Thymus: 1.34E−02 mSv/MBq
  Human estimated dosimetry: Thyroid: 1.29E−02 mSv/MBq
  Human estimated dosimetry: Total Body: 1.37E−02 mSv/MBq
  Human estimated dosimetry: Urinary Bladder Wall: 4.15E−02 mSv/MBq
  Human estimated dosimetry: Uterus: 1.49E−02 mSv/MBq
[1]; Males
  Human estimated dosimetry: Adrenals: 9.10E−03 mSv/MBq
  Human estimated dosimetry: Brain: 2.79E−03 mSv/MBq
  Human estimated dosimetry: Effective Dose: 1.10E−02 mSv/MBq
  Human estimated dosimetry: Esophagus: 1.13E−02 mSv/MBq
  Human estimated dosimetry: Eyes: 5.39E−03 mSv/MBq
  Human estimated dosimetry: Gallbladder Wall: 1.33E−02 mSv/MBq
  Human estimated dosimetry: Heart Wall: 1.06E−02 mSv/MBq
  Human estimated dosimetry: Kidneys: 1.56E−02 mSv/MBq
  Human estimated dosimetry: Left colon: 1.80E−02 mSv/MBq
  Human estimated dosimetry: Liver: 7.83E−03 mSv/MBq
  Human estimated dosimetry: Lungs: 7.17E−03 mSv/MBq
  Human estimated dosimetry: Osteogenic Cells: 1.78E−02 mSv/MBq
  Human estimated dosimetry: Pancreas: 1.00E−02 mSv/MBq
  Human estimated dosimetry: Prostate: 1.66E−02 mSv/MBq
  Human estimated dosimetry: Rectum: 1.62E−02 mSv/MBq
  Human estimated dosimetry: Red Marrow: 1.27E−02 mSv/MBq
  Human estimated dosimetry: Right colon: 1.65E−02 mSv/MBq
  Human estimated dosimetry: Salivary Glands: 1.17E−02 mSv/MBq
  Human estimated dosimetry: Small Intestine: 2.42E−02 mSv/MBq
  Human estimated dosimetry: Spleen: 8.20E−03 mSv/MBq
  Human estimated dosimetry: Stomach Wall: 1.40E−02 mSv/MBq
  Human estimated dosimetry: Testes: 7.86E−03 mSv/MBq
  Human estimated dosimetry: Thymus: 1.18E−02 mSv/MBq
  Human estimated dosimetry: Thyroid: 1.20E−02 mSv/MBq
  Human estimated dosimetry: Total Body: 1.25E−02 mSv/MBq
  Human estimated dosimetry: Urinary Bladder Wall: 4.87E−02 mSv/MBq
